{"source": "patent US10174348B2", "about": "“Bacteria engineered for ester production” (priority 2013, dated 2019)", "key": {"[1]": {"test_system": "pyruvate dehydrogenase complex", "experiment": "KDHC activity assay, negative control strain lysate", "assay_type": "biochemical, E. coli", "conditions": "25 mM 2-keto acid, 30° C.", "method": "Cells were grown to an OD600 of ˜0.4 in 5 mL LB medium at 37° C., followed by adding 1 mM IPTG. Protein expression was performed at 30° C. for 2 h. Then 1.8 mL of cells were centrifuged at 16,000×g for 10 min, resuspended in 300 μL BugBuster Protein Extraction Reagent (Novagen), and incubated at room temperature for 20 min for cell lysis. Then samples were centrifuged for 20 min, 16,000×g, at 2° C. The soluble fractions were transferred to chilled 1.5 mL tubes, and the insoluble fractions were suspended in 200 μL BugBuster forming a slurry and kept on ice. KDHC activities were measured by following the conversion of 2-keto acids to acyl-CoA with NAD^+ at 340 nm at 30° C. using a Synergy H1 Hybrid Plate Reader (BioTek Instruments, Inc.). […] Protein concentrations were measured using 5× Advanced Protein Assay Reagent (Cytoskeleton Inc.). […]\nTo confirm the activity of KDHC, cell lysates from each strain were prepared and activity was tested in vitro with pyruvate, 2-ketovalerate, 2-ketoisovalerate, 3-methylketovalerate, or 4-methylketovalerate as substrate. Activity was measured by detecting the reduction of NAD^+ in the presence of CoA. […]"}, "AL2045": {"test_system": "AL2045", "conditions": "AL2045 with the acetate assimilating pathway (ackA-pta); 10 g/L acetate", "method": "(§1) Growth of strains in culture medium containing 10 g/L glucose, 10 g/L acetate, or 10 g/L glucose and 10 g/L acetate was compared. Cells were grown at 37° C. on a rotary shaker (250 rpm). Overnight cultures were grown in 3 mL Luria Broth containing appropriate antibiotics. The overnight cultures were inoculated 1% in 5 mL M9 minimal media (containing appropriate antibiotics and 1 mM IPTG) and labeled carbon source in 15-ml screw-cap tubes.\n(§2) Next, the growth of JCL260 and AL2045, which contains ΔaceEF with and without the acetate assimilating pathway (ackA-pta), was compared (FIG. 21)."}, "JCL260": {"test_system": "JCL260", "conditions": "JCL260 without the acetate assimilating pathway; 10 g/L acetate", "method": "as §1, §2"}, "[2]": {"conditions": "cited from earlier work"}, "[3]": {"experiment": "Partitioning between hexadecane layer and culture during production", "assay_type": "physicochemical", "conditions": "equal volume of hexadecane over the culture", "method": "Cells were grown in 20 mL media in 250 mL screw-cap flasks at 37° C. until OD600 0.4, then 1 mM IPTG was added. […] Errors are SD (n=3). […] Then 20 mL of culture was transferred to a 250 mL screw-cap flask. […] The strong agitation at which the flask was shaking caused the hexadecane layer to become an emulsion with micelles of culture, but the majority of the culture layer underneath is discernible. The cultures were allowed to produce at 30° C. on a rotary shaker (250 rpm) for 24-96 h. […] For hexadecane layer assisted isobutyl acetate production, the centrifugation of the hexadecane samples separates the aqueous and hexadecane layer into two clear layers. […] The same volume of ethyl acetate (Sigma-Aldrich) as culture was added into the tubes to extract tetradecyl acetate and isobutyl isobutyrate after production at room temperature. These samples were mixed for 1 min and settled for 30 min on ice. The each sample was centrifuged with 20,000×g for 1 min. Then, 1 mL of supernatant was taken for GC analysis."}, "E. coli JCL260": {"test_system": "E. coli JCL260", "experiment": "Effect of isobutyl acetate on E. coli growth (toxicity experiments)", "assay_type": "cell-based", "conditions": "3 g L^−1 isobutyl acetate; JCL260, 30° C., M9P with 50 g L^−1 glucose", "method": "JCL260 was grown at 30° C. in 5 mL M9P media containing 50 g L^−1 glucose in 15 mL screw-cap tubes. Black Arrow indicates the time point when isobutyl acetate: none (light gray), 1 g L^−1 (black), or 3 g L^−1 (dark gray) was added into culture. Error bars are SD (n=3).\nThis strain produced 4.5-fold more isobutyl acetate (2.7 g L^−1) in the first 24 h compared to JCL260 (FIG. 12b-c). This production represents 60% of the theoretical maximum yield (0.42 g isobutyl acetate/g glucose)."}}}
{"compound": "CCCC(=O)C(=O)O", "note": "[2-ketovalerate]", "values": [{"measurement": "activity of negative control strain with 2-keto acid as substrate", "setting": "[1]", "result": 30, "unit": "nmol NADH/min/mg protein"}]}
{"compound": "CC(=O)O", "note": "[Acetate]", "values": [{"measurement": "effect of acetate on growth", "setting": "AL2045", "result": "enhanced the growth"}, {"measurement": "effect of acetate on growth", "setting": "JCL260", "result": "inhibited the growth"}]}
{"compound": "CC(C)COC(=O)C(C)C", "note": "[Isobutyl isobutyrate, isobutyl isobutyrate]", "values": [{"measurement": "water solubility", "setting": "[2]", "result": 0.52, "unit": "mg/mL"}]}
{"compound": "CC(C)CO", "note": "[isobutanol]", "values": [{"measurement": "remained in the culture", "setting": "[3]", "result": 86, "unit": "%"}]}
{"compound": "CC(=O)OCC(C)C", "note": "[isobutyl acetate]", "values": [{"measurement": "E. coli growth in the presence of isobutyl acetate", "setting": "E. coli JCL260", "result": "unable to grow"}, {"measurement": "extracted into the hexadecane", "setting": "[3]", "result": 97, "unit": "%"}]}
